Measured values as given in US20250108088A1, “REGENERATIVE PEPTIDES AND METHODS FOR USE THEREOF” (priority 2023, published 2025).

Tested on: Normal human dermal fibroblasts (HNDF)
Test: Myofibroblast transition assay (MFT), aSMA immunofluorescence
Type: cell-based
Settings: N = 3; for Myofibroblast transition (MFT), aSMA/cell, % change relative to control: TGF-Beta induced HNDF, control of no peptide; for MFT, Representative value from experiments (% change relative to control): most effective significant concentration of 10, 100, 1000 ng/ml
Excerpt: The myofibroblast transition (MFT) assay determines the effect of the peptide on inhibiting the transition of fibroblasts to myofibroblasts. The extracellular matrix produced by myofibroblasts may be produced in excess and may not be remodeled during tissue healing, leaving behind the fibrous connective tissue that forms a scar. Thus, the ability to regulate the degree of MFT may enable control of scarring. To determine if the peptides provided herein affect MFT, the following assay was performed.
Normal human dermal fibroblasts (HNDF) were cultured in high glucose Dulbecco's modified eagle medium (DMEM) supplemented with 10% fetal bovine serum (FBS) and 5 ml of 10,000 units of penicillin/streptomycin. Cells were cultured on 10 cm plates with media changes every 2 days. Cells were passaged in 0.25% Trypsin/EDTA after achieving 80% confluency.
To induce myofibroblast transition (MFT), normal human dermal fibroblasts (HNDFs) were split from 1-10 cm plates to 5-96 well plates. Cells were then allowed to grow the next day. The following day, cells were serum starved (1% FBS in DMEM) for 4 hours prior to adding 20 ng/ml of TGF-Beta to all wells of the plate. 1000 μM of Vactosertib (TEW-7197/EW-7197) was added to serve as a positive control and different concentrations of peptides were added to serve as the test articles. The cells were then exposed to the compounds for 5 more days before fixation.
The cells were fixed in paraformaldehyde (PFA) for 10-15 minutes, then washed 2× in PBS. Cells were blocked in 4% BSA for 30 minutes at 23° C. Cells were stained with the primary alpha-smooth muscle actin (aSMA) antibody (1:100) for 1 hour at 23° C. or left out at 4° C. overnight. Cells were rinsed 2× with BSA and then the secondary antibody mix was added: Alexa 488 (1:500) and DAPI (1:1000) for 30 min at 23° C. or 1 hr at 4° C. The plates were covered during staining, then rinsed 2× in BSA and stored in PBS.
Plates were imaged using the Celigo Imaging Cytometer by Nexcelcom. The ratio of fluorescent expression of alpha-smooth muscle actin (aSMA) and DAPI were quantified to determine the amount of aSMA/cell.
The change (normalized to the control) in MFT for each concentration is shown along with the p value for all experiments relative to the control of no peptide.

Substance	Myofibroblast transition (MFT), aSMA/cell, % change relative to control (10 ng/ml peptide) [%]	Myofibroblast transition (MFT), aSMA/cell, % change relative to control (100 ng/ml peptide) [%]	MFT, Representative value from experiments (% change relative to control)	Myofibroblast transition (MFT), aSMA/cell, % change relative to control (1000 ng/ml peptide) [%]
AKEVEKH [MBBey4]	−0.2205	−0.4435	−0.4435 p = (0.007) %	–
ASCRC [MBb5]	−0.298	−0.409	−0.6162 p = (0.01) %	−0.6162
ASLHGNGLRKRLRKFRNK [MBb66]	–	−0.3446	−0.3446 p = (0.024) %	–
AVHELGH [MBb24]	–	−0.1419	−0.1419 p = (0.003) %	–
CDADKKDYCLFGRCQYIVELETFRCRCQKGYYGERCVYLEL [EA-1]	−0.1401	−0.2928	−0.2928 p = (0.016) %	−0.0906
CGGLPGLRKRLRKFRNK [MBb41]	–	−0.6154	−0.6154 p = (0.03) %	−0.2177
DCRICS [MBa1]	–	−0.2174	−0.2174 p = (0.04) %	–
DPCPLCGLRKRLRKFRNK [MBb12]	–	−0.4465	−0.4465 p = (0.037) %	–
DVLDKRLFWIQYNREG [MBWhit45]	−0.6471	−0.6265	−0.6471 p = (0.018) %	−0.6136
EEIDA [MBb1.2]	–	−0.3496	−0.3496 p = (0.006) %	–
EELTRGLRKRLRKFRNK [MBb23]	–	−0.1203	−0.1203 p = (0.016) %	–
EKKNPGLRKRLRKFRNK [MBb73]	–	−0.07558	−0.07558 p = (0.04) %	–
ENIKKGLRKRLRKFRNK [MBb37]	–	−0.1426	−0.1426 p = (0.032) %	–
EYENPGLRKRLRKFRNK [MBb10]	–	−0.2694	−0.2694 p = (0.023) %	–
FFLRIHPDGRVDGVR [MBWhit1]	–	−0.3667	−0.3667 p = (0.038) %	–
GDIR VR (GDIRVR) [MBWhit33]	–	−0.3175	−0.3527 p = (0.032) %	−0.3527
GESKGLGLRKRLRKFRNK [MBb36]	−0.07698	−0.1964	−0.1964 p = (0.002) %	–
HIWA VVPCIR (HIWAVVPCIR) [MBBey3]	–	−0.1442	−0.1442 p = (0.037) %	–

Substance	Myofibroblast transition (MFT), aSMA/cell, % change relative to control (10 ng/ml peptide) [%]	Myofibroblast transition (MFT), aSMA/cell, % change relative to control (100 ng/ml peptide) [%]	MFT, Representative value from experiments (% change relative to control)	Myofibroblast transition (MFT), aSMA/cell, % change relative to control (1000 ng/ml peptide) [%]
HNGILID [MBBey24]	−0.05283	0.06835	−0.05283 p = (0.005) %	0.2745
IAHELGH [MBb2.2]	−0.1592	−0.1476	−0.1928 p = (0.021) %	−0.1928
IAHELGHNLGMSH [MBb25]	–	−0.1769	−0.1769 p = (0.008) %	–
IGERCQYRDLKWWELR [MBWhit44]	−0.702	−0.5753	−0.702 p = (0.025) %	−0.6111
IGPGLP [MBb76]	–	−0.03421	−0.1847 p = (0.009) %	−0.1847
IRTLDCDADKKDYCLFGRCQYIVELETFRCRCQKGYYGERCVYLEL [EA-2]	−0.1343	−0.3241	−0.3241 p = (0.014) %	−0.00716
ITCPHCQ [MBa9]	–	–	−0.3194 p = (0.02) %	−0.3194
KTHPGG [MBWhit38]	–	−0.3798	−0.3798 p = (0.006) %	–
LKEKKPAKEK [PC-1]	–	–	−0.4788 p = (0.038) %	−0.4788
LPRDER [MBb3.2]	–	–	−0.3874 p = (0.003) %	−0.3874
MDQGYPKETVDDFPG [MBBey12]	–	−0.6665	−0.6665 p = (0.007) %	−0.4491
NTCHQCGLRKRLRKFRNK [MBb35]	–	−0.3719	−0.4001 p = (0.016) %	−0.4001
PHKGLFCHFGSPANRKIGV [MBWhit47]	−0.6575	−0.5896	−0.6575 p = (0.021) %	−0.5755
PPSILGLRKRLRKFRNK [MBb44]	–	−0.1751	−0.1751 p = (0.005) %	–
QLFEDVIAEP [MBBey 38]	−0.3071	–	−0.3071 p = (0.007) %	–
RNPDSPQ [MBBey14]	−0.3781	−0.3863	−0.5336 p = (0.012) %	−0.5336
RVIWA [MBb4.2]	–	−0.2113	−0.2416 p = (0.003) %	−0.2416
